Assay results reported in patent publication US9157064B2, “Methods for generating inner ear cells in vitro” (The Board of Trustees of the Leland Stanford Junior …, priority 2011, dated 2015).
“Also recorded” adds a separate entry of the source.

Legend:
Format in all cases: cell-based, mouse
[1] = system: ESC-derived hair cell-like cell; test: Mechanically induced currents of ESC-derived hair cell-like cells (patch clamp); details: local application of 1 mM DHSM to hair bundles, then mechanical stimulation
Procedure: (§1) nGFP-expressing hair cell-like cells were identified by fluorescence microscopy, and nearby hair bundle-like protrusions were imaged with a […] objective with brightfield optics. Recordings were conducted with an Axoclamp 200a (Axon Instruments) amplifier, interfaced with a DIGIDATA® 1332 board (Axon), and jClamp Software (Scisoft). Mechanical stimulation was done with a stiff glass probe attached to a piezo stack.
(§2) More specifically, cultured cells were placed onto the stage of an OLYMPUS® BX 51 fixed stage upright microscope and imaged using a 100× dipping objective using brightfield optics. Images were collected using a C2400 NARISHIGE® analog camera coupled via a framegrabber to a PC computer using Image J software. Soda glass electrodes, coated with ski wax (MR. ZOG'S SEX WAX®) to limit stray capacitance, of resistances 3-5MΩ, were used to record from both ES and iPS cells. The culture medium was replaced during electrophysiological recordings with a solution containing (in mM) 140 NaCl, 5 KCl, 1 MgCl2, 2.5 CaCl, 10 HEPES, 6 glucose, 2 pyruvate, 2 ascorbate, 2 creatine. […] Data was analyzed with ORIGIN® software (Microcal). […]
(§3) Adaptation is a complex process in which hair bundle dynamic range is enhanced and sensitivity maintained over large displacements (Eatock, 2000). […] The fast time constant measured was 0.5±0.4 ms (n=5) and the slow was 11±5 ms (n=5). […]

[2] = system: iPSC-derived hair cell-like cell; test: Mechanically induced currents of iPSC-derived hair cell-like cells (patch clamp); details: local application of 1 mM DHSM to hair bundles, then mechanical stimulation
Procedure: as §1, §2, §3

[3] = system: ESC-derived cultures; test: Otic induction of ESC-derived embryoid body cultures (Pax2 immunostaining); details: ESC derivatives; not treated with any of the three initial factors, but treated with bFGF
Procedure: (§4) Embryoid bodies were transferred into fibronectin-coated 4-well dishes (Greiner) at 30 embryoid bodies per well and cultured for three days in DMEM/F12 (Invitrogen, mixed 1:1) supplemented with N2 and B27 (Invitrogen), bFGF (R&D Systems, 25 ng/ml), heparin sulfate (Sigma, 50 ng/ml), and ampicillin ([…]). FGF3 (recombinant human FGF-3, R&D Systems) and FGF10 (recombinant human FGF-10, R&D Systems) were used at 25 ng/ml in parallel experiments. The FGF receptor antagonist SU5402 (a gift from Pfizer R&D) was used at […]. After FGF-treatment, the cells were detached using 0.05% trypsin/EDTA (Sigma) in PBS, mildly triturated, and passed 1:10 into individual wells of 4-well dishes coated with either fibronectin, gelatin, MEFs, or mitotically inactivated embryonic (E18) chicken utricle stromal cells. Utricle stromal cells were prepared from 20 utricles whose sensory epithelia were removed after 40 min treatment with 0.5 mg/ml thermolysin (Sigma) in DMEM/F12 at 37 C. After addition of 5% serum, the sensory epithelia were removed and used in unrelated experiments. […]
(§5) For immunocytochemistry, the cells were fixed with 4% paraformaldehyde in PBS for 15 min at room temperature. […] Images were acquired with a Zeiss Axioimager/LSM 5 Exciter fluorescence and confocal microscope. […]

[4] = system: iPSC-derived cultures; test: Otic induction of iPSC-derived embryoid body cultures (Pax2 immunostaining); details: iPSC derivatives; not treated with any of the three initial factors, but treated with bFGF
Procedure: as §4, §5

| Compound | mechanically induced (evoked) currents [1] | mechanically induced (evoked) currents [2] | Pax2-expressing cells [3] [%] | Pax2-expressing cells [4] [%] |
| --- | --- | --- | --- | --- |
| CN[C@@H]1[C@H](O[C@H]2[C@H](O[C@H]3[C@H](O)[C@@H](O)[C@H](NC(=N)N)[C@@H](O)[C@@H]3NC(=N)N)O[C@@H](C)[C@]2(O)CO)O[C@@H](CO)[C@H](O)[C@H]1O [DHSM, dihydrostreptomycin] | antagonized reversibly; also recorded: reversibly blocked | antagonized reversibly; also recorded: reversibly blocked | – | – |
| bFGF: fibroblast growth factor FGF2 (bFGF), general otic inducer | – | – | 0.05±0.04 | 0.1±0.09 |
